# Results as given in patent US11903936B2, “Anti-malarial agents” (THE BOARD OF REGENTS OF THE UNIVERSITY OF TEXAS SYSTEM, priority 2019, dated 2024).
# Where two headings read alike, the source gives them in different places.
# What was measured:
# [1] = in vitro; settings: human
# [2] = target: Human DHODH (Homo sapiens (Human), UniProt Q02127); assay: DHODH kinetic analysis (DCIP assay); type: biochemical; settings: 25° C.
# Method: (§1) DHODH Kinetic Analysis. […] Inhibitor stocks (100 mM) were prepared in DMSO in amber bottles. A 3-fold dilution series was generated in DMSO from these stocks and then dispensed into assay buffer via a 1/100 dilution to generate a final concentration range of 0.001-100 μM (1% DMSO final). Data were collected using triplicate technical replicates and where indicated additional biological replicates were collected (the number of biological replicates is provided in parenthesis). IC50's were determined by fitting the data to log (inhibitor) vs. response equation Y=Bottom+(Top−Bottom)/(1+10^((X−Log IC50))) in GraphPad Prism.
# [3] = test system: P. vivax clinical isolates; settings: ex vivo, separate study in Indonesia, previously reported; cited from earlier work
# [4] = test system: parasitized human erythrocytes; assay: in vivo efficacy in the humanized SCID mouse model; settings: for DOR (day of recrudescence): 50 mg/kg dose b.i.d. for 6 days; for CED90: estimated average blood concentration that induces no net parasite growth
# From the text: During the study, samples of peripheral blood were taken from mice to measure the concentration of compounds and/or their metabolites.
# CED90: estimated average blood concentration that induces no net parasite growth.
# DoR was estimated by linear interpolation of % parasitemia the day before the rise to PO and the % parasitemia the day after reaching PO.
# [5] = test system: P. falciparum clinical isolates; settings: ex vivo, separate study in Indonesia, previously reported; cited from earlier work
# [6] = target: Mouse DHODH (Mus musculus (Mouse), UniProt O35435); assay: DHODH kinetic analysis (DCIP assay); type: biochemical; settings: 25° C.
# Method: as §1
# [7] = target: T1, Dog DHODH (Canis lupus familiaris, UniProt A0A8I3MWX2); assay: biochemical
# Method: as §1
# [8] = target: Rat DHODH (Rattus norvegicus (Rat), UniProt Q63707); assay: DHODH kinetic analysis (DCIP assay); type: biochemical; settings: 25° C.
# Method: as §1
# [9] = test system: P. falciparum 3D7; assay: P. falciparum growth and inhibition assay (SYBR Green); type: cell-based; settings: chloroquine-sensitive 3D7 strain, 72 h, albuMAX media
# Method: P. falciparum growth and inhibition assays. […] DSMO inhibitor stocks (as above) were diluted in DMSO using a 2 or 3-fold dilution series and then dispensed into media at 10× the final concentrations. A second step into media led to final inhibitor concentrations ranging from 0.001-30 μM and a final DMSO concentration of 0.2%. […] Data were collected using triplicate technical replicates and where indicated additional biological replicates were collected (the number of biological replicates is provided in parenthesis).
# [10] = target: P. vivax DHODH (Plasmodium vivax, UniProt A5K1N1); assay: biochemical; type: biochemical
# Method: as §1
# [11] = target: P. falciparum DHODH (Plasmodium falciparum (isolate 3D7), UniProt Q08210); type: biochemical; settings: 25° C., DCIP assay
# Method: Inhibitor stocks (100 mM) were prepared in DMSO in amber bottles. A 3-fold dilution series was generated in DMSO from these stocks and then dispensed into assay buffer via a 1/100 dilution to generate a final concentration range of 0.001-100 μM (1% DMSO final). Data were collected using triplicate technical replicates and where indicated additional biological replicates were collected (the number of biological replicates is provided in parenthesis). IC50's were determined by fitting the data to log (inhibitor) vs. response equation Y=Bottom+(Top−Bottom)/(1+10^((X−Log IC50))) in GraphPad Prism.
# [12] = physchem; settings: pH 6.5, fassif
# [13] = target: T1, Dog DHODH; settings: read-out: Dog DHODH IC50; 25° C., DCIP assay
# Method: as §1
# [14] = metabolic stability, Human Clint
# [15] = 25° C., DCIP assay, read-out: P. vivax DHODH IC50
# Sequence of P. vivax DHODH (A5K1N1 1-572): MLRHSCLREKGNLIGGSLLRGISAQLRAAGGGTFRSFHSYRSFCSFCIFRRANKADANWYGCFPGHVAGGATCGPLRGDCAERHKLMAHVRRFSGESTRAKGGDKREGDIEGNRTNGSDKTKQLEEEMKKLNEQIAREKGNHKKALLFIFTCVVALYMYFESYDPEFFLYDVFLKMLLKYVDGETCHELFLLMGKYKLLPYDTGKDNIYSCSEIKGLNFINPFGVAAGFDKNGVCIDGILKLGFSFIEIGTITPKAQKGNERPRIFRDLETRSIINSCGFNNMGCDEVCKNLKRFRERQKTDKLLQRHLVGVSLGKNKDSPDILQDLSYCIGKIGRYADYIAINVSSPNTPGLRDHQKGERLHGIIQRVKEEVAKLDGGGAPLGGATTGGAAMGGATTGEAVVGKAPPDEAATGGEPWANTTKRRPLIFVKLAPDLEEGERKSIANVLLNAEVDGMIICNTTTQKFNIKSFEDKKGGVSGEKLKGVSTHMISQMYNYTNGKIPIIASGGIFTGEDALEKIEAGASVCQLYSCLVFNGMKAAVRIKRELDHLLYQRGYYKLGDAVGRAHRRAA
# Sequence of Human DHODH (Q02127 whole entry): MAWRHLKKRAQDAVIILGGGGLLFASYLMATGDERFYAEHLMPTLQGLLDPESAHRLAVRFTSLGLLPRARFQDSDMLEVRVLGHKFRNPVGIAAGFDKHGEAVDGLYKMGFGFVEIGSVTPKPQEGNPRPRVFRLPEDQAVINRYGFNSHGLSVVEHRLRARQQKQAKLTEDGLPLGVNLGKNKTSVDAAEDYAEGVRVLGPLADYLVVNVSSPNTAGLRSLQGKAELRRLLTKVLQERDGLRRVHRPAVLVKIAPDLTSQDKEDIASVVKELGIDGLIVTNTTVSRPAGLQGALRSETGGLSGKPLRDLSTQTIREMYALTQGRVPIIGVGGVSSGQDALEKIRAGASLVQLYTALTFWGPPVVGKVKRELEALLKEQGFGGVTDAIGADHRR
# T1 sequence (A0A8I3MWX2 1-406): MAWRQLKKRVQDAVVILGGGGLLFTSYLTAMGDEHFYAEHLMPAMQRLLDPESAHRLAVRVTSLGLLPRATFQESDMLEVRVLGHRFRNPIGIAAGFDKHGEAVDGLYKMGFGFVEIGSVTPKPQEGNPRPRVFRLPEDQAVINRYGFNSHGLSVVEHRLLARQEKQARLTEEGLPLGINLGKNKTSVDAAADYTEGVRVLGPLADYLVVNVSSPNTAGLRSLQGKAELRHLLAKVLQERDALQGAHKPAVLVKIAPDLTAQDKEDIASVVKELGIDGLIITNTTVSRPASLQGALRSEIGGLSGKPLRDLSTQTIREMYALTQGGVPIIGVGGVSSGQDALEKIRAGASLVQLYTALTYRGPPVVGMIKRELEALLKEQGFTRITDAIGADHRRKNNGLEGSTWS
# Sequence of Rat DHODH (Q63707 whole entry): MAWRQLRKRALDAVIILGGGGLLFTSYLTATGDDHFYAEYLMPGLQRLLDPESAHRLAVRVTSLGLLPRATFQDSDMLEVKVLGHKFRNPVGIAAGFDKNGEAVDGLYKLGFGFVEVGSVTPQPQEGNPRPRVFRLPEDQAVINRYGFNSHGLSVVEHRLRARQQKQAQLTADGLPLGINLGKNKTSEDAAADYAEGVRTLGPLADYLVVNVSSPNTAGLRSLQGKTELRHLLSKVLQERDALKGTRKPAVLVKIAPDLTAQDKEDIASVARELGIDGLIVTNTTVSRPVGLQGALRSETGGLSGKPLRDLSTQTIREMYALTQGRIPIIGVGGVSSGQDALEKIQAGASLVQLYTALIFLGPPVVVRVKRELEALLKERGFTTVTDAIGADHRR
# Sequence of Mouse DHODH (O35435 whole entry): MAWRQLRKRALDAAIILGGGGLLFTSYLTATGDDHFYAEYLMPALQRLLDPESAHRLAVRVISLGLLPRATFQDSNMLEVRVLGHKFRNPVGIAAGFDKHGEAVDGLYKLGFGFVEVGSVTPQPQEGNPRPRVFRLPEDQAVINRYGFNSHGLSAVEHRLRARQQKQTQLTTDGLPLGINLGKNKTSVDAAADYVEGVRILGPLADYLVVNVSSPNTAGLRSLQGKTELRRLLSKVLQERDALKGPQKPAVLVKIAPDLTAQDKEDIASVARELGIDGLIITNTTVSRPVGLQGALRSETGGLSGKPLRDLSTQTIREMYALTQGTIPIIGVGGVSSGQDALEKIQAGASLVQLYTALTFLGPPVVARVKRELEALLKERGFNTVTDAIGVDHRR
# Sequence of P. falciparum DHODH (Q08210 24-569 limits assumed): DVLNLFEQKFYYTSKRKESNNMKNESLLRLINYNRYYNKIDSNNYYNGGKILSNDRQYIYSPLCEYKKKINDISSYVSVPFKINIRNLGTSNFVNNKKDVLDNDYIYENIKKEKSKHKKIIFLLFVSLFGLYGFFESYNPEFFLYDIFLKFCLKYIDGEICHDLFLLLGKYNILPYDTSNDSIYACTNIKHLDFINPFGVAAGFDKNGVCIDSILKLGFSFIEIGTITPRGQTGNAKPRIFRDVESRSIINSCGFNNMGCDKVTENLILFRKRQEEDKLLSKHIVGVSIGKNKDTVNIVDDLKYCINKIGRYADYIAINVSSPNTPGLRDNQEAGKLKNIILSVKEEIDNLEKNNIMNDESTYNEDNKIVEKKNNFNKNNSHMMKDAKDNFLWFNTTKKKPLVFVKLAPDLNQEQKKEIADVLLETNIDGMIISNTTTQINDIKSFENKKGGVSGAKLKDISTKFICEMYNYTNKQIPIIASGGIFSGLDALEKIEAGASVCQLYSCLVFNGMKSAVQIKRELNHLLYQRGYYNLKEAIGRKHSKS
Compound,microsomal CLint [1] [µL/min/mg],IC50 [2] [µM],IC50 [6] [µM],IC50 [8] [µM],other results
"Cc1c(C2(c3ccc(C(F)(F)F)nc3)CC2)c[nH]c1C(=O)NC(C)c1cc(C#N)[nH]n1 (single isomer, unassigned) [Compound 17, N-(1-(5-cyano-1H-pyrazol-3-yl)ethyl)-3-methyl-4-(1-(6-(trifluoromethyl)pyridin-3-yl)cyclopropyl)-1H-pyrrole-2-carboxamide]",16,> 100,,,
"Cc1cc(Nc2ccc(S(F)(F)(F)(F)F)cc2)n2nc(C(C)(F)F)nc2n1 [DSM265, 2-(1,1-difluoroethyl)-5-methyl-N-[4-(pentafluoro-λ^6-sulfanyl)phenyl]-[1,2,4]triazolo[1,5-a]pyrimidin-7-amine, reference compound]",< 7,,,,"EC50 [3]: 0.92 µM; DOR (day of recrudescence) ([4]; SCID mouse): 21; AUCED90 ([4]; SCID mouse, b.i.d. for 6 days): 35.4 μM · h/day; ED90 ([4]; SCID mouse, b.i.d. for 6 days, clears 90% of parasites 24 h post final dose on day 7): 16.7 mg/kg; CED90 ([4]; SCID mouse, b.i.d. for 6 days): 1.48 µM/day; EC50 [5]: 0.19 µM; FaSSIF Solubility pH 6.5 5 h (FaSSIF, pH 6.5, 5 h): 5.1 μg/ml"
"Cc1cc(C(C)NC(=O)c2[nH]cc(Cc3ccc(C(F)(F)F)nc3)c2C)no1 (single isomer, unassigned) [Compound 29, 3-methyl-N-(1-(5-methylisoxazol-3-yl)ethyl)-4-((6-(trifluoromethyl)pyridin-3-yl)methyl)-1H-pyrrole-2-carboxamide]",29,> 100,> 100,> 100,IC50 [7]: > 100 µM
"Cc1c(C2(c3ccc(C(F)(F)F)nc3)CC2)c[nH]c1C(=O)NC(C)c1cn[nH]c1 (single isomer, unassigned) [Compound 8, N-(1-(1H-pyrazol-4-yl)ethyl)-3-methyl-4-(1-(6-(trifluoromethyl)pyridin-3-yl)cyclopropyl)-1H-pyrrole-2-carboxamide]",66,> 100,,,
"Cc1cc(C(C)NC(=O)c2[nH]cc(C3(c4ccc(C(F)(F)F)nc4)CC3)c2C)n[nH]1 (single isomer, unassigned) [Compound 11, 3-methyl-N-[1-(5-methyl-1H-pyrazol-3-yl)ethyl]-4-{1-[6-(trifluoromethyl)pyridine-3-yl]cyclopropyl}-1H-pyrrole-2-carboxamide]",40,> 100,,,
"N-(1-(1H-1,2,4-triazol-3-yl) ethyl)-4-(3-fluoro-4-(trifluoromethyl)benzyl)-3-methyl-1H-pyrrole-2-carboxamide [Compound 5]",,> 100,,,"EC50 [9]: 0.039 µM; IC50 [10, 15]: 0.061 µM; IC50 [11]: 0.11 µM"
"Cc1c(C2(c3ccc(C(F)(F)F)nc3)CC2)c[nH]c1C(=O)NC(C)c1nc[nH]n1 (single isomer, unassigned) [Compound 2, 3-methyl-N-[1-(1H-1,2,4-triazol-3-yl)ethyl]-4-{1-[6-(trifluoromethyl)pyridin-3-yl]cyclopropyl}-1H-pyrrole-2-carboxamide]",11,> 100,> 100,> 100,"IC50 [7]: > 100 µM; DOR (day of recrudescence) ([4]; SCID mouse): 22; AUCED90 ([4]; SCID mouse, b.i.d. for 6 days): 35.6 μM · h/day; CED90 ([4]; SCID mouse, b.i.d. for 6 days): 1.48 µM/day; ED90 ([4]; mouse, in vivo): 25.6 mg/kg"
"Cc1c(Cc2ccc(C(F)(F)F)nc2)c[nH]c1C(=O)NC(C)c1cnn(C)c1 (single isomer, unassigned) [Compound 35, 3-methyl-N-(1-(1-methyl-1H-pyrazol-4-yl)ethyl)-4-((6-(trifluoromethyl)pyridin-3-yl)methyl)-1 H-pyrrole-2-carboxamide]",,> 100,> 100,> 100,IC50 [10]: 0.036 µM; IC50 [7]: > 100 µM; solubility [12]: 60 µg/mL
"Cc1c(C2(c3ccc(C(F)(F)F)nc3)CC2)c[nH]c1C(=O)NC(C)c1c[nH]cn1 (single isomer, unassigned) [Compound 20, N-(1-(1H-imidazol-4-yl)ethyl)-3-methyl-4-(1-(6-(trifluoromethyl)pyridin-3-yl)cyclopropyl)-1H-pyrrole-2-carboxamide]",35,> 100,,,
Cc1c(C2(c3ccc(C(F)(F)F)nc3)CC2)c[nH]c1C(=O)NC(C)c1cc(C(N)=O)[nH]n1 (stereo not drawn) [Compound 14],,> 100,> 100,> 100,"IC50 [10, 15]: 0.17 µM; IC50 [13]: > 100 µM; IC50 [11]: 0.14 ± 0.057 µM"
Cc1c(Cc2ccc(C(F)(F)F)nc2)c[nH]c1C(=O)NC(C)c1cn[nH]c1 (stereo not drawn) [Compound 32],,> 100,> 100,> 100,"Human Clint [14]: 20 μL/min/mg protein; IC50 [10, 15]: 0.043 µM; IC50 [13]: > 100 µM; FaSSIF Solubility pH 6.5 5 h (pH 6.5): 34 μg/ml; IC50 [11]: 0.047 ± 0.0079 µM"
